Like-named read-outs stand apart in the source and are kept apart here.
Legend:
NCI-H929 cells [1] = assay: viability of lenalidomide-preincubated NCI-H929 cells; format: cell-based, human; conditions: NCI-H929 cells preincubated 5 days with 3 μM lenalidomide
Experimental: FIG. 11: Percentage inhibition of viability of lenalidomide-preincubated NCI-H929 cells by HexaBody-DR5/DR5, lenalidomide and the combination thereof. […] Graphs show the mean and SD of duplicate measurements from a representative experiment (n=3).

primary MM cells [2] = conditions: 3 μM, 24 h viability assays on primary MM cells ex vivo
A375 = assay: three-day viability assay (CellTiter-Glo); format: cell-based, human; conditions: A375 melanoma, 3 days
Experimental: (§1) COLO 205 cancer cells were harvested by pooling the culture supernatant containing non-adherent cells and trypsinized adherent cells. The other cell lines were harvested by trypsinization. For trypsinization, adherent cells were incubated with Trypsin-EDTA (Gibco, Cat no 15400-054) diluted in PBS (B.Braun; Cat no 3623140) to a final concentration of 0.05% Trypsin for 2 minutes at 37° C. and passed through a cell strainer. Cells were pelleted by centrifugation for 5 minutes at 1,200 rpm and resuspended at a concentration of 0.5x10^5 cells/mL in culture medium.
(§2) 100 μL of single cell suspensions (5,000 cells per well) were seeded in polystyrene 96-well flat-bottom plates (Greiner Bio-One, Cat no 655180) and allowed to adhere overnight at 37° C. The following day, 50 μL antibody samples (0.002-133 nM final concentrations in 4-fold dilutions) were added to the adherent cells and incubated for 3 days at 37° C. As a positive control in all viability assays, cells were incubated with 5 μM staurosporine (Sigma Aldrich, Cat no S6942), and untreated cells were included as the negative control. The viability of the cultured cells was determined in a CellTiter-Glo Luminescent Cell Viability Assay (Promega, Cat no G7571) that quantifies the presence of ATP, which is an indicator of metabolically active cells. From the kit, 15 μL Luciferin Solution Reagent was added to each well of the viability assay plate. Next, plates were incubated for 1.5 hours at 37° C. 100 μL supernatant was transferred to a white OptiPlate-96 (Perkin Elmer, Cat no 6005299) and luminescence was measured on an EnVision Multilabel Reader (PerkinElmer). Data were analyzed and plotted using non-linear regression (sigmoidal dose-response with variable slope) using GraphPad Prism software. The percentage viable cells was calculated using the following formula: % viable cells=[(luminescence antibody sample−luminescence staurosporine sample)/(luminescence no antibody sample−luminescence staurosporine sample)]×100.

BxPC-3 = assay: three-day viability assay (CellTiter-Glo); format: cell-based, human; conditions: BxPC-3 pancreatic, 3 days
Experimental: as §1, §2

COLO 205 = assay: three-day viability assay (CellTiter-Glo); format: cell-based, human; conditions: COLO 205 CRC, 3 days
Experimental: as §1, §2

HCT-15 = assay: three-day viability assay (CellTiter-Glo); format: cell-based, human; conditions: HCT-15 CRC, 3 days
Experimental: as §1, §2

PANC-1 = assay: three-day viability assay (CellTiter-Glo); format: cell-based, human; conditions: PANC-1 pancreatic, 3 days
Experimental: as §1, §2

SK-MES-1 = assay: three-day viability assay (CellTiter-Glo); format: cell-based, human; conditions: SK-MES-1 NSCLC, 3 days
Experimental: as §1, §2

SNU-5 = assay: three-day viability assay (CellTiter-Glo); format: cell-based, human; conditions: SNU-5 gastric, 3 days
Experimental: as §1, §2

human cancer cell lines = assay: viability assays in various human cancer cell lines (overall); format: cell-based
Experimental: as §1, §2

[3] = system: colorectal cancer PDX model CR0126; assay: in vivo anti-tumor activity, PDX model; design: species or system mice; conditions: 2 mg/kg QWx2 IV; Mann-Whitney p<0.0379
Experimental: (§3) Immunodeficient 8-13 weeks old female BALB/c athymic nude mice (Beijing HFK Bio-Technology Co. Ltd.) or nu/nu mice (Vital River Laboratories Research Models and Services) were inoculated subcutaneously at the right flank with one tumor fragment (2-3 mm diameter) derived from colorectal cancer PDX model CR0126 or CR3056 at CrownBio, Beijing, China. Earmarks were placed for mouse identification. Tumor volumes were measured at least twice per week using a digital caliper (PLEXX). Tumor volumes (mm^3) were calculated as follows: tumor volume=0.5×(length)×(width)^2. When the mean tumor size reached ˜200 mm^3, mice were divided into groups of 8 mice each, with equal tumor size distribution (average and variance). Mice were treated QW×2 by IV injection of 10 μL IgG1-DR5-01-G56T-E430G+IgG1-DR5-05-E430G per gram body weight: 0.2 mg/mL (2 mg/kg) or 0.05 mg/mL (0.5 mg/kg). For each model, statistical analysis was performed on the last day that all groups were intact.

[4] = system: colorectal cancer PDX model CR3056; assay: in vivo anti-tumor activity, PDX model; design: species or system mice
Experimental: as §3

[5] = dose range finding study by intravenous infusion, plasma PK; format: in vivo, cynomolgus monkey; conditions: 0.1, 0.5, 5 and 25 mg/kg IV
CDX and PDX mouse models = assay: in vivo anti-tumor response in CDX and PDX mouse models (overall)
Experimental: Therefore, the FIH starting dose of 0.3 mg/kg was considered to be in the lower end of a potential therapeutic dose-range in human patients.

[6] = nonclinical immune agonism / cytokine release assessment
primary MM cells [7] = assay: 24-hour ex vivo viability assay with BMNCs of MM patients, flow cytometry; format: cell-based, human; conditions: 20 μg/mL
NCI-H929 cells [8] = assay: cytotoxicity in NCI-H929 cells with healthy donor PBMCs; format: cell-based, human; conditions: 20 μg/mL, 24 h, absence and presence of healthy donor PBMCs
Experimental: FIG. 12: Inhibition of cell viability by HexaBody-DR5/DR5 in combination with lenalidomide on NCI-H929 cells in presence and absence of healthy donor peripheral blood mononuclear cells (PBMCs) in vitro. (A) Percentage kill of NCI-H929 cells by 20 μg/mL HexaBody-DR5/DR5 after a 24-hour incubation in the absence and presence of healthy donor PBMCs (n=6) in a 40:1 effector to target ratio. Mean and SD are shown. (ns) not significant (paired t-test). […] NCI-H929 cells were incubated with lenalidomide-exposed PBMCs and treated with lenalidomide and/or HexaBody-DR5/DR5 for an additional 24 h. Mean percentage kill and SD is shown. **p<0.005; ***p<0.0005 (paired t-test).
To test possible indirect immunomodulatory effects of lenalidomide on HexaBody-DR5/DR5-mediated killing, PBMCs of healthy donors were preincubated with 3 μM lenalidomide for 5 days. Subsequently, NCI-H929 cells were incubated with 3 μM lenalidomide, lenalidomide-exposed PBMCs and/or 20 μg/mL HexaBody-DR5/DR5 for an additional 24 h.

[9] = cynomolgus monkey, in vivo, iv
[10] = single dose study by intravenous infusion, plasma PK (generic IgG ECLIA); conditions: for Cmax / Tmax / Vd: group mean
[11] = repeat-dose toxicity study, 5 weekly IV infusions (toxicokinetics, NOAEL/HNSTD)
[12] = median over the seven cell lines with >40% max inhibition
[13] = newly diagnosed (ND) patient samples
[14] = relapsed and/or refractory (RR) patient samples
[15] = 1QWx5 IV dosing, GLP toxicity study

Nc1cccc2c1CN(C1CCC(=O)NC1=O)C2=O (stereo not drawn) [lenalidomide]
effect of preincubation on HexaBody-DR5/DR5-mediated kill (NCI-H929 cells [1]): no direct effect
single agent activity (primary MM cells [2]): no single agent activity

HexaBody-DR5/DR5: 1:1 mixture of IgG1-hDR5-01-G56T-E430G and IgG1-hDR5-05-E430G, two non-competing humanized anti-human DR5 IgG1 antibodies
Average IC20 (A375): 0.067 µg/mL
IC20 (A375): 445 pM
Max inhibition % (A375): 54.6%
Average IC20 (BxPC-3): 0.102 µg/mL
IC20 (BxPC-3): 677 pM
Max inhibition % (BxPC-3): 89.4%
Average IC20 (COLO 205): 0.015 µg/mL
IC20 (COLO 205): 103 pM
Max inhibition % (COLO 205): 99.6%
Average IC20 (HCT-15): 0.104 µg/mL
IC20 (HCT-15): 692 pM
Max inhibition % (HCT-15): 66.7%
Average IC20 (PANC-1): 0.083 µg/mL
IC20 (PANC-1): 554 pM
Max inhibition % (PANC-1): 61.0%
Average IC20 (SK-MES-1): 0.086 µg/mL
IC20 (SK-MES-1): 572 pM
Max inhibition % (SK-MES-1): 76.6%
Average IC20 (SNU-5): 0.041 µg/mL
IC20 (SNU-5): 274 pM
Max inhibition % (SNU-5): 44.7%
maximal inhibition of viability (human cancer cell lines; in seven of the twelve cell lines tested): more than 40%
IC20 (human cancer cell lines; [12]): 554 pM
Overall Median IC20 (human cancer cell lines; [12]): 0.083 µg/mL
tumor growth inhibition [3]: significant tumor growth inhibition
tumor growth inhibition ([4]; 0.5 mg/kg QWx2 IV, Mann-Whitney p<0.0379): significant tumor growth inhibition
tumor growth inhibition ([4]; 2 mg/kg QWx2 IV, Mann-Whitney p<0.0003): significant tumor growth inhibition
increase in exposure with increasing dose, based on nCmax and nAUC0-∞ [5]: proportional increase in exposure
target-mediated clearance (plasma concentration-time profiles) ([5]; single or repeated dose): no indications of target-mediated clearance
In vivo anti-tumor response in CDX and PDX mouse models (CDX and PDX mouse models; dose giving full response): 2 mg/kg
In vivo anti-tumor response in CDX and PDX mouse models (CDX and PDX mouse models; dose giving partial response): 0.5 mg/kg
hazard of acute cytokine-releasing activity [6]: no hazard of acute cytokine-releasing activity has been identified
immune agonistic properties [6]: no immune agonistic properties
median lysis of MM cells (primary MM cells [7]; RR patients under treatment or last treatment shorter than 1 month before BM biopsy): 62%
median lysis of MM cells (primary MM cells [7]; RR patients with last exposure to therapy >1 month before BM biopsy): 23%
median lysis of MM cells (primary MM cells [7]; [13]): 19%
range of lysis of MM cells (primary MM cells [7]; [13]): 3-69%
median lysis of MM cells (primary MM cells [7]; [14]): 43%
range of lysis of MM cells (primary MM cells [7]; [14]): 0-86%
effect of FcγR-mediated crosslinking on cytotoxicity (NCI-H929 cells [8]): did not increase
AUC0-∞ (μg · day/· mL^−1) ([9]; 0.5 mg/kg): 40.3 μg · day/· mL^−1
CL (mL · day^−1/· kg^−1) ([9]; 0.5 mg/kg): 12.6 mL · day^−1/· kg^−1
T1/2 ([9]; 0.5 mg/kg): 83.5 h
nCmax (μg · mL^−1/mg · kg^−1) ([9]; 0.5 mg/kg): 33.5 μg · mL^−1/mg · kg^−1
AUC0-∞ (μg · day/· mL^−1) ([9]; 5 mg/kg): 452.6 μg · day/· mL^−1
CL (mL · day^−1/· kg^−1) ([9]; 5 mg/kg): 11.4 mL · day^−1/· kg^−1
T1/2 ([9]; 5 mg/kg): 110 h
nCmax (μg · mL^−1/mg · kg^−1) ([9]; 5 mg/kg): 27.0 μg · mL^−1/mg · kg^−1
AUC0-∞ (μg · day/· mL^−1) ([9]; 25 mg/kg): 2748 μg · day/· mL^−1
CL (mL · day^−1/· kg^−1) ([9]; 25 mg/kg): 9.10 mL · day^−1/· kg^−1
T1/2 ([9]; 25 mg/kg): 166 h
nCmax (μg · mL^−1/mg · kg^−1) ([9]; 25 mg/kg): 18.8 μg · mL^−1/mg · kg^−1
Cmax ([10]; 0.5 mg/kg single IV): 16.7 µg/mL
Tmax ([10]; 0.5 mg/kg single IV): 1 h
Vd ([10]; 0.5 mg/kg single IV): 0.0635 L/kg
Cmax ([10]; 5 mg/kg single IV): 135.0 µg/mL
Tmax ([10]; 5 mg/kg single IV): 1 h
Vd ([10]; 5 mg/kg single IV): 0.0726 L/kg
Cmax ([10]; 25 mg/kg single IV): 470.3 µg/mL
Tmax ([10]; 25 mg/kg single IV): 3.36 h
Vd ([10]; 25 mg/kg single IV): 0.091 L/kg
increase in exposure with increasing dose, based on nAUC0-∞ ([10]; 0.5 to 25 mg/kg): more or less proportional increase in exposure
increase in exposure, based on nCmax ([10]; between 5 and 25 mg/kg): less than proportional increase in exposure
increase in exposure, based on nCmax ([10]; up to a dose of 5 mg/kg): proportional increase in exposure
HNSTDcyno [11, 15]: 50 mg/kg
NOAELcyno [11, 15]: 50 mg/kg
MRSDhuman (=NOAELcyno/6) ([11]; converted from cynomolgus NOAEL/HNSTD): 8.3 mg/kg

Source: patent publication US20230293680A1, “A COMPOSITION OF ANTI-DR5 ANTIBODIES AND AN IMMUNOMODULATORY IMIDE DRUG FOR USE IN TREATING MULTIPLE MYELOMA” (Genmab B.V., priority 2020, published 2023)
